# Reference: ChEMBL document CHEMBL6096662, “Discovery and structure-activity relationship study of nicotinamide derivatives as DNA demethylase ALKBH2 inhibitors” (Eur J Med Chem, 2025)
# Experiments:
# [1] = target: T1, DNA oxidative demethylase ALKBH2 (Homo sapiens, UniProt Q6NS38); test: Inhibition of ALKBH2 (56 to 261 residues)(unknown origin) extracted from Escherichia coli BL21 (DE3) using 5'-GAAGACCT(1meA)GGCGTCC-3'/5'- CTGGGACGCCTAGGTCTTCACTG-3' as substrate incubated for 30 mins by FP assay
# T1 sequence (Q6NS38 whole entry): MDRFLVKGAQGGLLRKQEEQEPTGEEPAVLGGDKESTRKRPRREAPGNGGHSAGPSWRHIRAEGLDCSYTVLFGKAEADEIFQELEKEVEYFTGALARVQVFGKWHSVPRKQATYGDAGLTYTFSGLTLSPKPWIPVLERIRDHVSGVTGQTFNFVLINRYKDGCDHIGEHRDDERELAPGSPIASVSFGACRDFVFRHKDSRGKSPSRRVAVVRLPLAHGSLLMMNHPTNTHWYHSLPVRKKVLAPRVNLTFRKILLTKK
# U-87 MG = test: Anti-viability activity against human U87 cells by MTT assay; assay type: functional, cell-based, U-87MG ATCC
# [2] = target: T1, DNA oxidative demethylase ALKBH2; test: Inhibition of ALKBH2 (56 to 261 residues)(unknown origin) extracted from Escherichia coli BL21 (DE3) using 5meC DNA as substrate by FP assay
# [3] = target: Alpha-ketoglutarate-dependent dioxygenase FTO (Homo sapiens, UniProt Q9C0B1); test: Inhibition of demethylase activity of FTO (35 to 505 residues)(unknown origin) extracted from Escherichia coli BL21 (DE3) using 6meA dsDNA as substrate incubated for 30 mins by methylation-sensitive restriction enzyme digestion assay
# [4] = target: T1, DNA oxidative demethylase ALKBH2; test: Inhibition of demethylase activity of ALKBH2 (56 to 261 residues)(unknown origin) extracted from Escherichia coli BL21 (DE3) using 1meA dsDNA as substrate incubated for 30 mins in presence of alpha-KG by methylation-sensitive restriction enzyme digestion assay
# RNA demethylase ALKBH5 = RNA demethylase ALKBH5 (Homo sapiens, UniProt Q6P6C2); test: Inhibition of demethylase activity of ALKBH5 (66 to 292 residues)(unknown origin) extracted from Escherichia coli BL21 (DE3) using 6meA dsDNA as substrate incubated for 30 mins by methylation-sensitive restriction enzyme digestion assay
# [5] = target: T2, Alpha-ketoglutarate-dependent dioxygenase alkB homolog 3 (Homo sapiens, UniProt Q96Q83); test: Inhibition of demethylase activity of ALKBH3 (70 to 286 residues)(unknown origin) extracted from Escherichia coli BL21 (DE3) using 1meA dsDNA as substrate incubated for 30 mins by methylation-sensitive restriction enzyme digestion assay
# T2 sequence (Q96Q83 whole entry): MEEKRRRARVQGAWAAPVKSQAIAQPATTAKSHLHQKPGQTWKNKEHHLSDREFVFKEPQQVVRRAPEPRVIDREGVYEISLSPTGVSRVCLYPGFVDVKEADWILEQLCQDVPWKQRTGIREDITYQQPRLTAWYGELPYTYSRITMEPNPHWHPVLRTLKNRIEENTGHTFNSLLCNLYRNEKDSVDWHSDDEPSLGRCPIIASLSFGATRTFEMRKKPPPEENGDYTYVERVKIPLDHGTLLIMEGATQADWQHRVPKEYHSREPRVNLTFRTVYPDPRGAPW
# [6] = Inhibition of demethylase activity of ALKBH1 (19 to 369 residues)(unknown origin) extracted from Escherichia coli BL21 (DE3) using 6meA unpaired dsDNA as substrate incubated for 30 mins by methylation-sensitive restriction enzyme digestion assay; set-up: species or system Homo sapiens
# [7] = target: T1, DNA oxidative demethylase ALKBH2; test: Binding affinity to ALKBH2 (56 to 261 residues)(unknown origin) assessed as dissociation constant by ITC assay
# Chain of Alpha-ketoglutarate-dependent dioxygenase FTO (Q9C0B1 whole entry, the tested form may be a part): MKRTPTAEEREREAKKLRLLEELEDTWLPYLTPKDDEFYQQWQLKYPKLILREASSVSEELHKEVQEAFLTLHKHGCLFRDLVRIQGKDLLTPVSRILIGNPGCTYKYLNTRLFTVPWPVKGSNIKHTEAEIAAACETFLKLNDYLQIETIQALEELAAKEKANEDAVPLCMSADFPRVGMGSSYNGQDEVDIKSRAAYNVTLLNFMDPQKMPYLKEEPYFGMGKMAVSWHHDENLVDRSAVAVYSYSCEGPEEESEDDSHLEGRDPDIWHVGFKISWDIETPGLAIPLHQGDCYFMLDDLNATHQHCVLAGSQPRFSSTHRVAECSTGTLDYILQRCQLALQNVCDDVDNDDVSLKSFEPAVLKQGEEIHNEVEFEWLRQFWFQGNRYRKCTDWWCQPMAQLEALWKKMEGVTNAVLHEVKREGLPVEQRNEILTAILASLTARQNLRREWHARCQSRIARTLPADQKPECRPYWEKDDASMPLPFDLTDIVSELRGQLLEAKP
# Chain of RNA demethylase ALKBH5 (Q6P6C2 whole entry, the tested form may be a part): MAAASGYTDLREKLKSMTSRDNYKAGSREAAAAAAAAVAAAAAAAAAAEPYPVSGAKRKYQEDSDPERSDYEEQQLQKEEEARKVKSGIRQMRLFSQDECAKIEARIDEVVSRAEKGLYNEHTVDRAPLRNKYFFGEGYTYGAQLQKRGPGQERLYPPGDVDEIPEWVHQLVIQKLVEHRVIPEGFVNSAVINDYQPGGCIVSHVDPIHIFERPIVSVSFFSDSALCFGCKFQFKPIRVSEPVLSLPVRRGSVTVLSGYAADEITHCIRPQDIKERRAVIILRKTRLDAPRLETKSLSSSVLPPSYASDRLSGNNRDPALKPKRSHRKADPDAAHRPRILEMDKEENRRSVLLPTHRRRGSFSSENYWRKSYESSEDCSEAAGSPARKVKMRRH
structure (smiles),measurement,setting,value
COC1CCN(C(=O)c2ccc(-n3cc(C(=O)O)cn3)nc2)C1 (stereo not drawn),IC50,[1],378 nM
O=C(O)c1cnn(-c2ccccc2)c1,IC50,[1],86700 nM
O=C(O)c1cnn(-c2ccc(C(=O)N3CCCC(c4ccccc4)C3)cn2)c1 (stereo not drawn),IC50,[1],73 nM
CC(C)(C)C(NC(=O)c1ccc(-n2cc(C(=O)O)cn2)nc1)c1ccccc1 (stereo not drawn),IC50,U-87 MG,103000 nM
same,IC50,[2],47 nM
same,IC50,[3],> 200000 nM
same,IC50,[4],1480 nM
same,IC50,RNA demethylase ALKBH5,> 200000 nM
same,IC50,[5],> 200000 nM
same,IC50,[6],> 200000 nM
same,IC50,[1],31 nM
same,Kd,[7],226 nM
CCOC(=O)c1cnn(-c2ccc(C(=O)NC(c3ccccc3)C(C)(C)C)cn2)c1 (stereo not drawn),IC50,U-87 MG,4560 nM
